From patent publication US20250249056A1, “CANCER THERAPIES COMPRISING A NUCLEAR EXPORT INHIBITOR AND AN ONCOLYTIC VIRUS” (priority 2022, published 2025)

Tested on: Colo205 cells
Format: cell-based, human
Settings: selinexor-treated cytoplasm vs control cytoplasm

Q: How did the “Differential protein expression, PLEKHS1” value (Q5SXH7) turn out when O=C(/C=C\n1cnc(-c2cc(C(F)(F)F)cc(C(F)(F)F)c2)n1)NNc1cnccn1 [selinexor] was run?
A: 2.039

Q: And the “Differential protein expression, RSBN1” value (Q5VWQ0)?
A: 100

Q: What about the “Differential protein expression, ZMYM4” value (Q5VZL5) of the same compound?
A: 0.01

Q: And the “Differential protein expression, RPL7L1” value (Q6DKI1)?
A: 0.463

Q: What about the “Differential protein expression, DMKN” value (Q6E0U4) of the same compound?
A: 0.02

Q: And the “Differential protein expression, NCAPH2” value (Q6IBW4)?
A: 0.01

Q: And the “Differential protein expression, LIN54” value (Q6MZP7)?
A: 0.426

Q: And the “Differential protein expression, POMZP3” value (Q6PJE2)?
A: 100

Q: And the “Differential protein expression, CCDC137” value (Q6PK04)?
A: 0.426

Q: And the “Differential protein expression, MPRIP” value (Q6WCQ1)?
A: 0.01

Q: What about the “Differential protein expression, NCCRP1” value (Q6ZVX7) of the same compound?
A: 2.342

Q: What about the “Differential protein expression, LPCAT2” value (Q7L5N7) of the same compound?
A: 2.194

Q: What about the “Differential protein expression, CXXC5” value (Q7LFL8) of the same compound?
A: 0.01

Q: And the “Differential protein expression, KRT74” value (Q7RTS7)?
A: 4.935

Q: What about the “Differential protein expression, KRT28” value (Q7Z3Y7) of the same compound?
A: 2.439

Q: What about the “Differential protein expression, KRT27” value (Q7Z3Y8) of the same compound?
A: 2.607

Q: What about the “Differential protein expression, KRT25” value (Q7Z3Z0) of the same compound?
A: 2.607

Q: And the “Differential protein expression, MYH14” value (Q7Z406)?
A: 2.01

Q: What about the “Differential protein expression, KRT78” value (Q8N1N4) of the same compound?
A: 2.84

Q: And the “Differential protein expression, PIAS4” value (Q8N2W9)?
A: 0.01

Q: And the “Differential protein expression, GPATCH11” value (Q8N954)?
A: 100

Q: What about the “Differential protein expression, KDM1B” value (Q8NB78) of the same compound?
A: 0.01

Q: What about the “Differential protein expression, RNF169” value (Q8NCN4) of the same compound?
A: 100

Q: What about the “Differential protein expression, PHC3” value (Q8NDX5) of the same compound?
A: 100

Q: What about the “Differential protein expression, PPHLN1” value (Q8NEY8) of the same compound?
A: 0.01

Q: And the “Differential protein expression, GDAP1” value (Q8TB36)?
A: 2.559

Q: What about the “Differential protein expression, CIP2A” value (Q8TCG1) of the same compound?
A: 0.239

Q: What about the “Differential protein expression, CHD6” value (Q8TD26) of the same compound?
A: 0.01

Q: What about the “Differential protein expression, GPT2” value (Q8TD30) of the same compound?
A: 0.411

Q: And the “Differential protein expression, RB1CC1” value (Q8TDY2)?
A: 100

Q: And the “Differential protein expression, ZNF384” value (Q8TF68)?
A: 0.01

Q: And the “Differential protein expression, U2AF1L4” value (Q8WU68)?
A: 2.738

Q: And the “Differential protein expression, TSEN15” value (Q8WW01)?
A: 0.497

Q: And the “Differential protein expression, NIPSNAP1” value (Q9BPW8)?
A: 0.499

Q: What about the “Differential protein expression, SH2D3A” value (Q9BRG2) of the same compound?
A: 100

Q: And the “Differential protein expression, WDR83” value (Q9BRX9)?
A: 100

Q: What about the “Differential protein expression, TPPP3” value (Q9BW30) of the same compound?
A: 2.408

Q: And the “Differential protein expression, LSM14B” value (Q9BX40)?
A: 0.437

Q: What about the “Differential protein expression, TTYH3” value (Q9C0H2) of the same compound?
A: 0.47

Q: What about the “Differential protein expression, BRD8” value (Q9H0E9) of the same compound?
A: 0.01

Q: And the “Differential protein expression, WWP1” value (Q9H0M0)?
A: 2.549

Q: What about the “Differential protein expression, TASP1” value (Q9H6P5) of the same compound?
A: 100

Q: What about the “Differential protein expression, RPF2” value (Q9H7B2) of the same compound?
A: 2.588

Q: What about the “Differential protein expression, CAAP1” value (Q9H8G2) of the same compound?
A: 100

Q: And the “Differential protein expression, BRD9” value (Q9H8M2)?
A: 0.01

Q: What about the “Differential protein expression, ING2” value (Q9H160) of the same compound?
A: 100

Q: What about the “Differential protein expression, SDCBP2” value (Q9H190) of the same compound?
A: 2.885

Q: What about the “Differential protein expression, EPB41L4B” value (Q9H329) of the same compound?
A: 2.055

Q: And the “Differential protein expression, FOXP1” value (Q9H334)?
A: 0.01

Q: And the “Differential protein expression, SP110” value (Q9HB58)?
A: 0.01

Q: And the “Differential protein expression, PATZ1” value (Q9HBE1)?
A: 100

Q: And the “Differential protein expression, SPC25” value (Q9HBM1)?
A: 0.479

Q: And the “Differential protein expression, AGO4” value (Q9HCK5)?
A: 2.165

Q: What about the “Differential protein expression, TCF7L1” value (Q9HCS4) of the same compound?
A: 5.627

Q: What about the “Differential protein expression, MLXIPL” value (Q9NP71) of the same compound?
A: 0.379

Q: And the “Differential protein expression, TCF7L2” value (Q9NQB0)?
A: 0.01

Q: What about the “Differential protein expression, STRN4” value (Q9NRL3) of the same compound?
A: 100

Q: And the “Differential protein expression, RAD18” value (Q9NS91)?
A: 100

Q: What about the “Differential protein expression, DIAPH3” value (Q9NSV4) of the same compound?
A: 0.233

Q: What about the “Differential protein expression, MBNL3” value (Q9NUK0) of the same compound?
A: 2.509

Q: What about the “Differential protein expression, MRGBP” value (Q9NV56) of the same compound?
A: 100

Q: What about the “Differential protein expression, EXD2” value (Q9NVH0) of the same compound?
A: 2.016

Q: And the “Differential protein expression, ASF1B” value (Q9NVP2)?
A: 0.458

Q: What about the “Differential protein expression, SDHAF2” value (Q9NX18) of the same compound?
A: 0.346

Q: What about the “Differential protein expression, EHF” value (Q9NZC4) of the same compound?
A: 0.01

Q: What about the “Differential protein expression, MACROH2A2” value (Q9P0M6) of the same compound?
A: 100

Q: What about the “Differential protein expression, SENP1” value (Q9POU3) of the same compound?
A: 0.01

Q: And the “Differential protein expression, m101L” value (Q9Q8J9)?
A: 2.679

Q: And the “Differential protein expression, m097R” value (Q9Q8K3)?
A: 100

Q: And the “Differential protein expression, m094R” value (Q9Q8K6)?
A: 0.01

Q: And the “Differential protein expression, m089L” value (Q9Q8L1)?
A: 0.01

Q: And the “Differential protein expression, m048L” value (Q9Q8P8)?
A: 2.287

Q: And the “Differential protein expression, m043L” value (Q9Q8Q3)?
A: 0.01

Q: And the “Differential protein expression, m042L” value (Q9Q8Q4)?
A: 0.01

Q: What about the “Differential protein expression, m032R” value (Q9Q8R4) of the same compound?
A: 100

Q: And the “Differential protein expression, DNAJB4” value (Q9UDY4)?
A: 3.313

Q: And the “Differential protein expression, DAXX” value (Q9UER7)?
A: 100

Q: What about the “Differential protein expression, MLX” value (Q9UH92) of the same compound?
A: 0.453

Q: And the “Differential protein expression, ADGRE2” value (Q9UHX3)?
A: 0.491

Q: What about the “Differential protein expression, RASAL2” value (Q9UJF2) of the same compound?
A: 0.01

Q: And the “Differential protein expression, LEF1” value (Q9UJU2)?
A: 5.627

Q: And the “Differential protein expression, ANAPC2” value (Q9UJX6)?
A: 0.336

Q: What about the “Differential protein expression, GGA2” value (Q9UJY4) of the same compound?
A: 0.442

Q: And the “Differential protein expression, CCNL1” value (Q9UK58)?
A: 3.386

Q: What about the “Differential protein expression, RALY” value (Q9UKM9) of the same compound?
A: 2.03

Q: And the “Differential protein expression, YEATS2” value (Q9ULM3)?
A: 100

Q: And the “Differential protein expression, NOB1” value (Q9ULX3)?
A: 0.407

Q: And the “Differential protein expression, FZR1” value (Q9UM11)?
A: 4.964

Q: And the “Differential protein expression, NOL7” value (Q9UMY1)?
A: 0.431

Q: And the “Differential protein expression, LIMCH1” value (Q9UPQ0)?
A: 0.01

Q: What about the “Differential protein expression, AGAP1” value (Q9UPQ3) of the same compound?
A: 2.271

Q: What about the “Differential protein expression, DNM3” value (Q9UQ16) of the same compound?
A: 100

Q: And the “Differential protein expression, JRKL” value (Q9Y4A0)?
A: 0.474

Q: And the “Differential protein expression, DCAF1” value (Q9Y4B6)?
A: 0.482

Q: And the “Differential protein expression, UTP18” value (Q9Y5J1)?
A: 0.493

Q: And the “Differential protein expression, ST14” value (Q9Y5Y6)?
A: 2.934

Q: What about the “Differential protein expression, RBMX2” value (Q9Y388) of the same compound?
A: 100

Q: And the “Differential protein expression, PSAT1” value (Q9Y617)?
A: 0.469

Q: What about the “Differential protein expression, SLC12A7” value (Q9Y666) of the same compound?
A: 0.497

Q: What about the “Differential protein expression, mt6” value (Q9YQ03) of the same compound?
A: 0.01

Q: What about the “Differential protein expression, GLE1” value (Q53GS7) of the same compound?
A: 0.329

Q: And the “Differential protein expression, INO80D” value (Q53TQ3)?
A: 100

Q: And the “Differential protein expression, NAIF1” value (Q69Y17)?
A: 0.374

Q: What about the “Differential protein expression, H3C13; H3C14; H3C15” value (Q71DI3) of the same compound?
A: 3.19

Q: And the “Differential protein expression, TADA2B” value (Q86TJ2)?
A: 0.246

Q: What about the “Differential protein expression, RPS19BP1” value (Q86WX3) of the same compound?
A: 0.426

Q: What about the “Differential protein expression, KRT73” value (Q86Y46) of the same compound?
A: 4.935

Q: And the “Differential protein expression, PBXIP1” value (Q96AQ6)?
A: 2.168

Q: And the “Differential protein expression, INTS12” value (Q96CB8)?
A: 100

Q: And the “Differential protein expression, LRRC58” value (Q96CX6)?
A: 3.753

Q: And the “Differential protein expression, RBMXL1” value (Q96E39)?
A: 100

Q: And the “Differential protein expression, MCRS1” value (Q96EZ8)?
A: 0.01

Q: What about the “Differential protein expression, PERP” value (Q96FX8) of the same compound?
A: 2.002

Q: What about the “Differential protein expression, LTV1” value (Q96GA3) of the same compound?
A: 0.288

Q: And the “Differential protein expression, SMARCD1” value (Q96GM5)?
A: 0.376

Q: What about the “Differential protein expression, ZNF668” value (Q96K58) of the same compound?
A: 0.01

Q: What about the “Differential protein expression, RNPC3” value (Q96LT9) of the same compound?
A: 100

Q: What about the “Differential protein expression, PWWP2A” value (Q96N64) of the same compound?
A: 0.01

Q: What about the “Differential protein expression, SERPINB12” value (Q96P63) of the same compound?
A: 3.145

Q: And the “Differential protein expression, SLC38A2” value (Q96QD8)?
A: 0.262

Q: What about the “Differential protein expression, PHF12” value (Q96QT6) of the same compound?
A: 100

Q: And the “Differential protein expression, SMC6” value (Q96SB8)?
A: 0.01

Q: And the “Differential protein expression, CDK3” value (Q00526)?
A: 0.01

Q: What about the “Differential protein expression, ARL11” value (Q969Q4) of the same compound?
A: 2.014

Q: And the “Differential protein expression, U2AF1” value (Q01081)?
A: 2.205

Q: And the “Differential protein expression, KRT76” value (Q01546)?
A: 2.236

Q: What about the “Differential protein expression, SP2” value (Q02086) of the same compound?
A: 0.01

Q: What about the “Differential protein expression, PCDH1” value (Q08174) of the same compound?
A: 3.649

Q: What about the “Differential protein expression, DSC1” value (Q08554) of the same compound?
A: 2.044

Q: And the “Differential protein expression, CDH17” value (Q12864)?
A: 5.81

Q: What about the “Differential protein expression, PRDM2” value (Q13029) of the same compound?
A: 0.499

Q: What about the “Differential protein expression, KRR1” value (Q13601) of the same compound?
A: 2.698

Q: What about the “Differential protein expression, AAMP” value (Q13685) of the same compound?
A: 0.385

Q: What about the “Differential protein expression, RUNX2” value (Q13950) of the same compound?
A: 0.192

Q: What about the “Differential protein expression, CDK13” value (Q14004) of the same compound?
A: 2.192

Q: What about the “Differential protein expression, TFDP2” value (Q14188) of the same compound?
A: 0.48
